In brackets after ≈: the same amount, converted by molar mass.
Assays:
Escherichia coli [1] = test: Antibacterial activity against Escherichia coli BW25113 assessed as reduction in bacterial growth incubated for 5 hrs by resazurin reduction assay; assay type: functional
Escherichia coli [2] = test: Antibacterial activity against Escherichia coli BW25113 assessed as reduction in bacterial growth incubated for 20 hrs by resazurin microtitre assay; assay type: functional
[3] = molecular target: T1, Multidrug efflux pump subunit AcrB (Escherichia coli (strain K12)) (UniProt P31224); test: Inhibition of AcrB in Escherichia coli BW25113 assessed as potentiation of pyridomycin-induced antibacterial activity incubated for 5 hrs by resazurin reduction assay
T1 sequence (whole entry): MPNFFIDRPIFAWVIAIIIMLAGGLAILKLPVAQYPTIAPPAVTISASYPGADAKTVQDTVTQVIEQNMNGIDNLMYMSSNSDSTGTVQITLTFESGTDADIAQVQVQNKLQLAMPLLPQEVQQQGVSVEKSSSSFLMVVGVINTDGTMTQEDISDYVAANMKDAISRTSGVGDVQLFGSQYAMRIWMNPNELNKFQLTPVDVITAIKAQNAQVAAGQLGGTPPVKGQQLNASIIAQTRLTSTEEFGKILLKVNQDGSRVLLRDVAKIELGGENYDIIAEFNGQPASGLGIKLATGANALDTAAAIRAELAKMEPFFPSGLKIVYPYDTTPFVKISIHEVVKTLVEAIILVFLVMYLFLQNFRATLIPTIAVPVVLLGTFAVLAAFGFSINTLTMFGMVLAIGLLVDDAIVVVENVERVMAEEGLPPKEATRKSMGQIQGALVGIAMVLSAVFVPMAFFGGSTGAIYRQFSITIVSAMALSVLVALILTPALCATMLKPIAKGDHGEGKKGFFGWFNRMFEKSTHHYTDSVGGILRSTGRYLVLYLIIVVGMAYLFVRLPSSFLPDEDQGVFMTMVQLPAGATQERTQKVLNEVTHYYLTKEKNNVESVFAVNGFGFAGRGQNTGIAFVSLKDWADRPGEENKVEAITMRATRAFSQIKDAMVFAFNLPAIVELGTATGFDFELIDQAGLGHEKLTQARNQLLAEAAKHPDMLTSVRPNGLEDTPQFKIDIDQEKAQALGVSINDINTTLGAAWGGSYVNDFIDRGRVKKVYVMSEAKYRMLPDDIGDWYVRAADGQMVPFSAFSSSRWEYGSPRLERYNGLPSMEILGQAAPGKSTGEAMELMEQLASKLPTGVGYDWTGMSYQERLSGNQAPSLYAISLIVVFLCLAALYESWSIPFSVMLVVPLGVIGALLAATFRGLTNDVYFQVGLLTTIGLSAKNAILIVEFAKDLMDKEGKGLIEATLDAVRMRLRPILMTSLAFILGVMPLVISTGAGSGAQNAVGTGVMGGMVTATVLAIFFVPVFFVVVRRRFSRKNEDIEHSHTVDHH

[4] = molecular target: T1, Multidrug efflux pump subunit AcrB (Escherichia coli (strain K12)); test: Potency index, ratio of BDM88832 EC90 to test compound EC90 for inhibition of AcrAB-TolC in Escherichia coli BW25113
Escherichia coli [5] = test: Potentiation of novobiocin induced antibacterial activity in Escherichia coli BW25113 assessed as novobiocin MIC at 100 uM incubated for 20 hrs by resazurin microtitre assay (reference value: 80 ug/ml); assay type: functional
Escherichia coli [6] = test: Potentiation of piperacillin induced antibacterial activity in Escherichia coli BW25113 assessed as piperacillin MIC at 100 uM incubated for 20 hrs by resazurin microtitre assay (reference value: 4 ug/ml); assay type: functional
Escherichia coli [7] = test: Potentiation of ciprofloxacin induced antibacterial activity in Escherichia coli BW25113 assessed as ciprofloxacin MIC at 100 uM incubated for 20 hrs by resazurin microtitre assay (reference value: 0.01 ug/ml); assay type: functional
Escherichia coli [8] = test: Potentiation of oxacillin induced antibacterial activity in Escherichia coli BW25113 assessed as fold change in oxacillin MIC at 100 uM incubated for 20 hrs by resazurin microtitre assay; assay type: functional
Escherichia coli [9] = test: Potentiation of novobiocin induced antibacterial activity in Escherichia coli BW25113 assessed as fold change in novobiocin MIC at 100 uM incubated for 20 hrs by resazurin microtitre assay; assay type: functional
Escherichia coli [10] = test: Potentiation of chloramphenicol induced antibacterial activity in Escherichia coli BW25113 assessed as chloramphenicol MIC at 100 uM incubated for 20 hrs by resazurin microtitre assay (reference value: 8 ug/ml); assay type: functional
Escherichia coli [11] = test: Potentiation of chloramphenicol induced antibacterial activity in Escherichia coli BW25113 assessed as fold change in chloramphenicol MIC at 100 uM incubated for 20 hrs by resazurin microtitre assay; assay type: functional
[12] = molecular target: T1, Multidrug efflux pump subunit AcrB (Escherichia coli (strain K12)); test: Inhibition of AcrB in Escherichia coli BW25113 assessed as potentiation of pyridomycin-induced antibacterial activity incubated for 20 hrs by resazurin microtitre assay
Escherichia coli [13] = test: Potentiation of piperacillin induced antibacterial activity in Escherichia coli BW25113 assessed as fold change in piperacillin MIC at 100 uM incubated for 20 hrs by resazurin microtitre assay; assay type: functional
Escherichia coli [14] = test: Inhibition of AcrB Asp951Asn mutant in Escherichia coli BW25113 assessed as potentiation of pyridomycin-induced antibacterial activity incubated for 20 hrs by resazurin microtitre assay
[15] = Solubility of compound in PBS at pH 7.4 incubated for 24 hrs by LC-MS/MS analysis; assay type: physicochemical
Escherichia coli [16] = test: Potentiation of erythromycin induced antibacterial activity in Escherichia coli BW25113 assessed as erythromycin MIC at 100 uM incubated for 20 hrs by resazurin microtitre assay (reference value: 128 ug/ml); assay type: functional
Escherichia coli [17] = test: Potentiation of erythromycin induced antibacterial activity in Escherichia coli BW25113 assessed as fold change in erythromycin MIC at 100 uM incubated for 20 hrs by resazurin microtitre assay; assay type: functional
Escherichia coli [18] = test: Potentiation of fusidic acid induced antibacterial activity in Escherichia coli BW25113 assessed as fusidic acid MIC at 100 uM incubated for 20 hrs by resazurin microtitre assay (Rvb > 128 ug/ml); assay type: functional
Escherichia coli [19] = test: Potentiation of linezolid induced antibacterial activity in Escherichia coli BW25113 assessed as fold change in linezolid MIC at 100 uM incubated for 20 hrs by resazurin microtitre assay; assay type: functional
Escherichia coli [20] = test: Potentiation of ciprofloxacin induced antibacterial activity in Escherichia coli BW25113 assessed as fold change in ciprofloxacin MIC at 100 uM incubated for 20 hrs by resazurin microtitre assay; assay type: functional
Escherichia coli [21] = test: Selectivity ratio of EC90 for inhibition of AcrB Asp951Asn mutant in Escherichia coli BW25113 to inhibition of AcrB in Escherichia coli BW25113 incubated for 20 hrs by resazurin microtitre assay
Escherichia coli [22] = test: Inhibition of AcrB Glu947Gln mutant in Escherichia coli BW25113 assessed as potentiation of pyridomycin-induced antibacterial activity incubated for 20 hrs by resazurin microtitre assay
Escherichia coli [23] = test: Potentiation of linezolid induced antibacterial activity in Escherichia coli BW25113 assessed as linezolid MIC at 100 uM incubated for 20 hrs by resazurin microtitre assay (Rvb > 128 ug/ml); assay type: functional
Escherichia coli [24] = test: Inhibition of AcrB Ser450Pro mutant in Escherichia coli BW25113 assessed as potentiation of pyridomycin-induced antibacterial activity incubated for 20 hrs by resazurin microtitre assay
Escherichia coli [25] = test: Potentiation of oxacillin induced antibacterial activity in Escherichia coli BW25113 assessed as oxacillin MIC at 100 uM incubated for 20 hrs by resazurin microtitre assay (Rvb > 128 ug/ml); assay type: functional
Escherichia coli [26] = test: Selectivity ratio of EC90 for inhibition of AcrB Glu947Gln mutant in Escherichia coli BW25113 to inhibition of AcrB in Escherichia coli BW25113 incubated for 20 hrs by resazurin microtitre assay
Escherichia coli [27] = test: Potentiation of fusidic acid induced antibacterial activity in Escherichia coli BW25113 assessed as fold change in fusidic acid MIC at 100 uM incubated for 20 hrs by resazurin microtitre assay; assay type: functional
Escherichia coli [28] = test: Inhibition of AcrB Ala446Pro mutant in Escherichia coli BW25113 assessed as potentiation of pyridomycin-induced antibacterial activity incubated for 20 hrs by resazurin microtitre assay
[29] = Solubility of compound in DMSO at > 125 uM; assay type: physicochemical
[30] = Stability in CD-1 mouse liver microsomes assessed as half life at 1 uM measured up to 40 mins by LC-MS/MS analysis; assay type: ADME, Microsome
[31] = Stability in mouse plasma assessed as half life at 10 uM measured up to 360 mins by LC-MS/MS analysis; assay type: ADME, cell-free
[32] = Stability in CD-1 mouse liver microsomes assessed as intrinsic clearance at 1 uM measured up to 40 mins by LC-MS/MS analysis; assay type: ADME, Microsome; details: read-out: CLH
Escherichia coli [33] = test: Antibacterial activity against Escherichia coli BW25113 harboring acrB deletion mutant assessed as reduction in bacterial growth incubated for 20 hrs by resazurin microtitre assay; assay type: functional

| SMILES | MIC (Escherichia coli [2]) | MIC95 (Escherichia coli [5]) [µg/mL] | MIC95 (Escherichia coli [6]) [µg/mL] | MIC95 (Escherichia coli [7]) [µg/mL] | fold change (FC) (Escherichia coli [8]) | fold change (FC) (Escherichia coli [9]) | MIC95 (Escherichia coli [10]) [µg/mL] | fold change (FC) (Escherichia coli [11]) | EC90 [12] [µM] | fold change (FC) (Escherichia coli [13]) | EC90 (Escherichia coli [14]) [µM] | solubility at 24 h [15] [µM] | MIC95 (Escherichia coli [16]) [µg/mL] | fold change (FC) (Escherichia coli [17]) | MIC95 (Escherichia coli [18]) [µg/mL] | fold change (FC) (Escherichia coli [19]) | fold change (FC) (Escherichia coli [20]) | Ratio (Escherichia coli [21]) | EC90 (Escherichia coli [22]) [µM] | MIC95 (Escherichia coli [23]) [µg/mL] | also measured |
| --- | --- | --- | --- | --- | --- | --- | --- | --- | --- | --- | --- | --- | --- | --- | --- | --- | --- | --- | --- | --- | --- |
| FC(F)(F)c1cnc(N2CCNCC2)c(Cl)c1 | > 250 µM | – | – | – | – | – | – | – | – | – | – | – | – | – | – | – | – | – | – | – | MIC90 (Escherichia coli [1]): > 500 µM; EC90 [3]: 62 µM |
| Cl.Cl.NCc1cccc(OC(=O)c2cnc(N3CCNCC3)c(Cl)c2)c1 | > 250 µM | 1.2 | < 0.5 | < 0.005 | >26 | 64 | 2 | 4 | 0.6 | >8 | 62 | 180 | 4 | 32 | 5 | >16 | >2 | 103 | > 62 | 8 | Ratio [4]: 20; EC90 (Escherichia coli [24]): > 62 µM; MIC95 (Escherichia coli [25]): 5 µg/mL; Ratio (Escherichia coli [26]): > 103; fold change (FC) (Escherichia coli [27]): >26; EC90 (Escherichia coli [28]): > 62 µM |
| Cc1noc(-c2cnc(N3CCNCC3)c(Cl)c2)n1.Cl | > 125 µM | – | – | – | – | – | – | – | > 125 | – | – | – | – | – | – | – | – | – | – | – | solubility [29]: Soluble |
| Cl.Cl.NCCc1nc(-c2cnc(N3CCNCC3)c(Cl)c2)no1 | > 250 µM | 10 | < 0.5 | < 0.005 | 3 | 8 | 2 | 4 | 8 | >8 | > 250 | > 200 | 16 | 8 | 32 | 8 | >2 | > 31 | > 250 | 16 | half-life at 1 µM [30]: > 0.667 h; half-life at 10 µM [31]: > 6 h; EC90 (Escherichia coli [24]): > 250 µM; microsomal CLint at 1 µM [32]: < 2 µL/min/mg; MIC95 (Escherichia coli [25]): 40 µg/mL; Ratio (Escherichia coli [26]): > 31; fold change (FC) (Escherichia coli [27]): 4; EC90 (Escherichia coli [28]): > 250 µM |
| CC/C(C)=C1\OC(=O)[C@H](C)[C@H](O)[C@H](Cc2cccnc2)NC(=O)[C@@H](NC(=O)c2ncccc2O)[C@@H](C)OC1=O [PYRIDOMYCIN] | 12.5 µg/mL | – | – | – | – | – | – | – | – | – | – | – | – | – | – | – | – | – | – | – | MIC (Escherichia coli [33]): 0.78 µg/mL (≈ 1.44 µM) |

— ChEMBL document CHEMBL5634076, “Optimization of pyridylpiperazine-based inhibitors of the Escherichia coli AcrAB-TolC efflux pump” (Eur J Med Chem, 2023)
